Experimental data taken from publication PMC5889410, “Design and Biological Evaluation of Antifouling Dihydrostilbene Oxime Hybrids” (Marine Biotechnology (New York, N.y.), 2018).
Values after ≈ are worked out from the molar mass of the structure shown.

Legend:
Porphyridium purpureum [1] = details: ref Trepos et al. ([2015]); cited from earlier work
Halomonas aquamarina [2] = details: ref Trepos et al. ([2015]); cited from earlier work
Roseobacter litoralis [3] = details: ref Trepos et al. ([2015]); cited from earlier work
Vibrio proteolyticus [4] = details: ref Trepos et al. ([2015]); cited from earlier work
[5] = system: Pleurochrysis roscoffensis; details: ref Trepos et al. ([2015]); cited from earlier work
[6] = system: Pleurochrysis roscoffensis; details: ref Trepos et al. ([2015]); cited from earlier work; remark: listed apart in the source
[7] = system: Balanus improvisus cyprid larvae; assay: whole plant or invertebrate; format: in vivo; details: for IC50: Amphibalanus improvisus, 120 h, read-out: IC50 (cyprid settlement inhibition)
Excerpt: (§1) Cyprid larvae of B. improvisus were reared in a laboratory cultivating system at Tjärnö Marine Biological Laboratory, University of Gothenburg, Sweden, as previously described by Berntsson et al. ([2000]). Four pure, but non-axenic, marine microalgae (obtained from Algobank, Caen, France) and 10 marine bacterial strains were used (Table 1) as representative microfoulers. These strains represent fouling species encountered in both estuarine and marine environments (Moodie et al. [2017b]). The bacteria were grown at 26 °C in a marine medium, composed of 0.5% peptone (neutralized bacteriological peptone, Oxoid Ltd.) in filtered (Whatman 1001–270, pore size 11 μm) natural seawater. Microalgae were grown and maintained at 22 °C in F/2 medium.
Stock solutions of compounds in DMSO were serially diluted in untreated polystyrene Petri dishes containing 10 mL of filtered (0.2 μm) seawater, affording final concentrations ranging from 0.1 to 10 μg/mL. Freshly molted balanide cyprids (18–22) were added to each Petri dish and incubated at ambient temperature (20–25 °C) for 5 days. Cyprid metamorphosis was assessed using a dissecting microscope where the numbers of juvenile settled, free-swimming, and dead cyprids were noted. Initial compound screening was conducted at 5 μg/mL, and full IC50 determination was performed only on compounds displaying > 50% inhibition at that concentration. The IC50 was defined as the concentration preventing 50% of the cyprid settlement on the Petri dish surface. Each concentration was replicated four times (n = 4), and dishes containing 0.1% of DMSO were used as negative controls. The commercial AF agent Sea-nine™ was employed as a positive control.

Cylindrotheca closterium [8] = details: ref Trepos et al. ([2015]); cited from earlier work
Cylindrotheca closterium [9] = details: ref Trepos et al. ([2015]); cited from earlier work; remark: listed apart in the source
Halomonas aquamarina [10] = details: ref Trepos et al. ([2015]); cited from earlier work; remark: listed apart in the source
Halamphora coffeaeformis [11] = details: ref Trepos et al. ([2015]); cited from earlier work
Vibrio harveyi [12] = details: ref Trepos et al. ([2015]); cited from earlier work
Vibrio carchariae [13] = details: ref Trepos et al. ([2015]); cited from earlier work
Shewanella putrefaciens [14] = details: ref Trepos et al. ([2015]); cited from earlier work
[15] = system: Pseudoalteromonas elyakovii; details: ref Trepos et al. ([2015]); cited from earlier work
Vibrio natriegens [16] = details: ref Trepos et al. ([2015]); cited from earlier work
Vibrio aestuarianus [17] = details: ref Trepos et al. ([2015]); cited from earlier work
Porphyridium purpureum [18] = details: ref Trepos et al. ([2015]); cited from earlier work; remark: listed apart in the source
Halamphora coffeaeformis [19] = details: ref Trepos et al. ([2015]); cited from earlier work; remark: listed apart in the source
Vibrio proteolyticus [20] = details: ref Trepos et al. ([2015]); cited from earlier work; remark: listed apart in the source
Vibrio harveyi [21] = details: ref Trepos et al. ([2015]); cited from earlier work; remark: listed apart in the source
Vibrio aestuarianus [22] = details: ref Trepos et al. ([2015]); cited from earlier work; remark: listed apart in the source
Vibrio carchariae [23] = details: ref Trepos et al. ([2015]); cited from earlier work; remark: listed apart in the source
microalgae = assay: Microalgal adhesion and growth, whole panel of four species; format: cell-based, four marine microalgae; details: 10–0.01 μg/mL tested
Excerpt: as §1
(§2) Microplates containing the compounds in ranging concentrations (10–0.01 μg/mL) were prepared from MeOH stock solutions as previously described (Trepos et al. [2014]; Moodie et al. [2017a]). Microalgal stock solutions were prepared using the chlorophyll analysis methodology of Chambers et al. ([2011]). The pretreated microplate wells were treated with 100 μL of the algal stock solutions (0.1 mg chlorophyll a/mL). The plates were then incubated for 5 days at 20 °C under constant light exposure (140 μmol m^−2 s^−1). Both microalgal adhesion and growth inhibition were measured. Growth was determined by analysis of liberated chlorophyll a after centrifugation and methanol addition. Chlorophyll a was quantified fluorometrically. MIC value for algal growth was defined as the lowest concentration yielding a decrease in chlorophyll a content. Microalgal adhesion was determined in an analogous manner where the non-attached algal cells were removed prior to methanol addition (100 μL), releasing chlorophyll a from the remaining algal biofilms. The MIC for adhesion was defined as the lowest compound concentration causing a reduction in […]. Toxicity experiments were performed in an analogous manner to those described for the bacterial assays.

[24] = system: Pleurochrysis roscoffensis; assay: Microalgal adhesion assay (chlorophyll a); format: cell-based; details: Chrysotila roscoffensis, 120 h, 5 days incubation, 10–0.01 μg/mL tested, read-out: MIC against the adhesion (A) of microalgae, P. roscoffensis
Excerpt: as §1, §2

Halamphora coffeaeformis [25] = assay: Microalgal adhesion assay (chlorophyll a); format: cell-based; details: Halamphora coffeiformis, 120 h, 5 days incubation, 10–0.01 μg/mL tested, read-out: MIC against the adhesion (A) of microalgae, H. coffeaformis
Excerpt: as §1, §2

Porphyridium purpureum [26] = assay: Microalgal adhesion assay (chlorophyll a); format: cell-based; details: 120 h, 5 days incubation, 10–0.01 μg/mL tested, read-out: MIC against the adhesion (A) of microalgae, P. purpureum
Excerpt: as §1, §2

Cylindrotheca closterium [27] = assay: Microalgal growth assay (chlorophyll a); format: cell-based; details: 120 h, 5 days incubation, 10–0.01 μg/mL tested, read-out: MIC against the growth (G) of microalgae, C. closterium
Excerpt: as §1, §2

[28] = system: Pleurochrysis roscoffensis; assay: Microalgal growth assay (chlorophyll a); format: cell-based; details: Chrysotila roscoffensis, 120 h, 5 days incubation, 10–0.01 μg/mL tested, read-out: MIC against the growth (G) of microalgae, P. roscoffensis
Excerpt: as §1, §2

Halamphora coffeaeformis [29] = assay: Microalgal growth assay (chlorophyll a); format: cell-based; details: Halamphora coffeiformis, 120 h, 5 days incubation, 10–0.01 μg/mL tested, read-out: MIC against the growth (G) of microalgae, H. coffeaformis
Excerpt: as §1, §2

Porphyridium purpureum [30] = assay: Microalgal growth assay (chlorophyll a); format: cell-based; details: 120 h, 5 days incubation, 10–0.01 μg/mL tested, read-out: MIC against the growth (G) of microalgae, P. purpureum
Excerpt: as §1, §2

marine bacteria = assay: Bacterial adhesion assay, whole panel of ten strains; format: cell-based, 10 marine bacterial strains; details: tested up to 10 μg/mL, active = MIC of 10 μg/mL or below
Excerpt: as §1
(§3) Bacterial strain adhesion and growth were determined according to the methods of Thabard et al. ([2011]). Bacterial suspensions (100-μL aliquots, 2 × 10^8 colony forming units/mL) were aseptically added to the compound containing microplate wells (10–0.01 μg/mL), and the plates were incubated for 48 h at 26 °C. Media only was used as a blank. Bacterial growth was monitored spectroscopically at 630 nm. The minimal inhibitory concentration (MIC) for bacterial growth was defined as the lowest concentration which results in a decrease in OD. After 48-h incubation time, the bacterial adhesion assay was conducted by emptying the wells and rinsing with sterile seawater (100 μL) to remove non-attached cells, and air-drying at room temperature. The residual bacterial biofilm was stained with aqueous crystal violet (100 μL, 0.3% v/v) and the OD measured at 595 nm (Sonak and Bhosle [1995]). […] If inhibition was observed, toxicity tests were conducted. The well contents were transferred into a flask of fresh media, and growth was measured after 5 days of additional incubation. The mode of action was deemed biostatic if an increase in OD was measured at 595 nm (Moodie et al. [2017a]).

Vibrio aestuarianus [31] = assay: Bacterial adhesion assay (crystal violet, OD 595 nm); format: cell-based; details: 48 h, read-out: MIC against the adhesion of marine bacteria, V.a.
Excerpt: as §1, §3

Vibrio natriegens [32] = assay: Bacterial growth assay (OD 630 nm); format: cell-based; details: 48 h incubation, 10–0.01 μg/mL tested, read-out: MIC against the growth of marine bacteria, V.n.
Excerpt: as §1, §3

Vibrio carchariae [33] = assay: Bacterial growth assay (OD 630 nm); format: cell-based; details: Vibrio harveyi, 48 h incubation, 10–0.01 μg/mL tested, read-out: MIC against the growth of marine bacteria, V.c.
Excerpt: as §1, §3

Vibrio proteolyticus [34] = assay: Bacterial growth assay (OD 630 nm); format: cell-based; details: 48 h incubation, 10–0.01 μg/mL tested, read-out: MIC against the growth of marine bacteria, V.p.
Excerpt: as §1, §3

Roseobacter litoralis [35] = assay: Bacterial growth assay (OD 630 nm); format: cell-based; details: 48 h incubation, 10–0.01 μg/mL tested, read-out: MIC against the growth of marine bacteria, R.l.
Excerpt: as §1, §3

[36] = system: Pseudoalteromonas elyakovii; assay: Bacterial growth assay (OD 630 nm); format: cell-based; details: 48 h incubation, 10–0.01 μg/mL tested, read-out: MIC against the growth of marine bacteria, P.e.
Excerpt: as §1, §3

Halomonas aquamarina [37] = assay: Bacterial growth assay (OD 630 nm); format: cell-based; details: Vreelandella aquamarina, 48 h incubation, 10–0.01 μg/mL tested, read-out: MIC against the growth of marine bacteria, H.a.
Excerpt: as §1, §3

Vibrio harveyi [38] = assay: Bacterial growth assay (OD 630 nm); format: cell-based; details: 48 h incubation, 10–0.01 μg/mL tested, read-out: MIC against the growth of marine bacteria, V.h.
Excerpt: as §1, §3

Shewanella putrefaciens [39] = assay: Bacterial growth assay (OD 630 nm); format: cell-based; details: 48 h incubation, 10–0.01 μg/mL tested, read-out: MIC against the growth of marine bacteria, S.p.
Excerpt: as §1, §3

Vibrio aestuarianus [40] = assay: Bacterial growth assay (OD 630 nm); format: cell-based; details: 48 h incubation, 10–0.01 μg/mL tested, read-out: MIC against the growth of marine bacteria, V.a.
Excerpt: as §1, §3

CCCCCCCCn1sc(Cl)c(Cl)c1=O [Sea-nine™]
MIC against the adhesion (A) of microalgae, P. purpureum (Porphyridium purpureum [1]): < 0.01 µg/mL | MIC against the growth of marine bacteria, H.a. (Halomonas aquamarina [2]): 0.1 µg/mL | MIC against the growth of marine bacteria, R.l. (Roseobacter litoralis [3]): 1 µg/mL | MIC against the adhesion of marine bacteria, V.p. (Vibrio proteolyticus [4]): 0.01 µg/mL | MIC against the adhesion (A) of microalgae, P. roscoffensis [5]: < 0.01 µg/mL | MIC against the growth (G) of microalgae, P. roscoffensis [6]: < 0.01 µg/mL | IC50 [7]: 0.25 µg/mL (≈ 0.886 µM) | MIC against the adhesion (A) of microalgae, C. closterium (Cylindrotheca closterium [8]): < 0.01 µg/mL | MIC against the growth (G) of microalgae, C. closterium (Cylindrotheca closterium [9]): < 0.01 µg/mL | MIC against the adhesion of marine bacteria, H.a. (Halomonas aquamarina [10]): < 0.01 µg/mL | MIC against the adhesion (A) of microalgae, H. coffeaformis (Halamphora coffeaeformis [11]): < 0.01 µg/mL | MIC against the growth of marine bacteria, V.h. (Vibrio harveyi [12]): 1 µg/mL | MIC against the growth of marine bacteria, V.c. (Vibrio carchariae [13]): < 0.01 µg/mL | MIC against the growth of marine bacteria, S.p. (Shewanella putrefaciens [14]): 1 µg/mL | MIC against the growth of marine bacteria, P.e. [15]: 0.1 µg/mL | MIC against the growth of marine bacteria, V.n. (Vibrio natriegens [16]): 1 µg/mL | MIC against the growth of marine bacteria, V.a. (Vibrio aestuarianus [17]): < 0.01 µg/mL | MIC against the growth (G) of microalgae, P. purpureum (Porphyridium purpureum [18]): < 0.01 µg/mL | MIC against the growth (G) of microalgae, H. coffeaformis (Halamphora coffeaeformis [19]): < 0.01 µg/mL | MIC against the growth of marine bacteria, V.p. (Vibrio proteolyticus [20]): 0.01 µg/mL | MIC against the adhesion of marine bacteria, V.h. (Vibrio harveyi [21]): 1 µg/mL | MIC against the adhesion of marine bacteria, V.a. (Vibrio aestuarianus [22]): 1 µg/mL | MIC against the adhesion of marine bacteria, V.c. (Vibrio carchariae [23]): < 0.01 µg/mL

COc1cc(C(Cc2cccc(O)c2)=NO)ccc1O [Compound 13, 1-(3-methoxy-4-hydroxyphenyl)-1-hydroxyimino-2-(3’-hydroxyphenyl)-ethane]
IC50 [7]: 5 µg/mL (≈ 18.3 µM) | Toxicity (%) (dead cyprids) ([7]; Balanus improvisus, in vivo, 5 days, 5 μg/mL): 1.6% | MIC / activity against the attachment and growth of microalgae (microalgae): inhibited both the settlement and growth of all of the tested species | MIC [24]: 1 µg/mL (≈ 3.66 µM) | MIC (Halamphora coffeaeformis [25]): 0.01 µg/mL (≈ 0.0366 µM) | MIC (Porphyridium purpureum [26]): 10 µg/mL (≈ 36.6 µM) | MIC (Cylindrotheca closterium [27]): 1 µg/mL (≈ 3.66 µM) | MIC [28]: 0.1 µg/mL (≈ 0.366 µM) | MIC (Halamphora coffeaeformis [29]): 0.1 µg/mL (≈ 0.366 µM) | MIC (Porphyridium purpureum [30]): 1 µg/mL (≈ 3.66 µM) | MIC / activity against the adhesion of all bacteria tested (marine bacteria): displayed inhibitory activities | MIC (Vibrio aestuarianus [31]): 0.1 µg/mL (≈ 0.366 µM) | MIC (Vibrio natriegens [32]): 1 µg/mL (≈ 3.66 µM) | MIC (Vibrio carchariae [33]): > 10 µg/mL | MIC (Vibrio proteolyticus [34]): > 10 µg/mL | MIC (Roseobacter litoralis [35]): > 10 µg/mL | MIC [36]: > 10 µg/mL | MIC (Halomonas aquamarina [37]): > 10 µg/mL | MIC (Vibrio harveyi [38]): > 10 µg/mL | MIC (Shewanella putrefaciens [39]): > 10 µg/mL | MIC (Vibrio aestuarianus [40]): > 10 µg/mL
